Test results published in PubChem BioAssay AID328 (DTP/NCI, 2004).
Several values for one entry are separate records, joined by “and”; a condition that tells them apart may be missing. Identical values can stand only once. Inconclusive results and toxic doses are left out. Starred links: 1 amine or outer side, 2 acyl side, 3 side chain; linkers in the order of their positions; H or OH if unused. Positions of bridges follow the written chain, without caps; N, C: chain ends. Non-standard residues stand in square brackets, D forms with d. Residues, ends and D or L forms follow the SMILES beside them. Chains are numbered I, II in the order given. Actinocin(1to9) = Cc1c2oc3c(C)ccc(C(=O)[*:2])c3nc-2c(C(=O)[*:1])c(N)c1=O; NMeV = CN[CH](C(=O)O)C(C)C; Aze = O=C(O)[CH]1CCN1; Sar = CNCC(=O)O

Test system: BDF1 mice, P388 leukemia ip, median survival T/C
Assay: NCI In Vivo Anticancer Drug Screen. Data for tumor model P388 Leukemia (intraperitoneal) in B6D2F1 (BDF1) mice
Details: endpoint: median survival time, higher = longer survival
How it was run: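 Reported as T/C, where T is the survival measurement in dosed animals and C the same measurement in vehicle controls.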

Cc1c2oc3c(C)ccc(C(=O)NC4C(=O)NC(C(C)C)C(=O)N5CCCC5C(=O)N(C)CC(=O)N(C)C(C(C)C)C(=O)OC4C)c3nc-2c(C(=O)NC2C(=O)NC(C(C)C)C(=O)N3CCC3C(=O)N(C)CC(=O)N(C)C(C(C)C)C(=O)OC2C)c(N)c1=O (centres undefined) (I: TV[Aze][Sar][NMeV] / II: TVP[Sar][NMeV]; ester I:1-I:C, II:1-II:C; linker I:N-II:N via Actinocin(1to9); configuration not given here)
T/C (dose: 0.26 mg/kg/injection, schedule: Q04DX003 (ip), vehicle: saline): 201 % of control
T/C (dose: 0.3 mg/kg/injection, schedule: Q04DX003 (ip), vehicle: saline + alcohol): 265 % of control and 168 % of control
T/C (dose: 0.4 mg/kg/injection, schedule: Q04DX003 (ip), vehicle: saline): 250 % of control
T/C (dose: 0.45 mg/kg/injection, schedule: Q04DX003 (ip), vehicle: saline + alcohol): 256 % of control and 223 % of control
T/C (dose: 0.6 mg/kg/injection, schedule: Q04DX003 (ip), vehicle: saline + alcohol): 230 % of control and 159 % of control
T/C (dose: 0.6 mg/kg/injection, schedule: Q04DX003 (ip), vehicle: saline): 373 % of control
T/C (dose: 0.9 mg/kg/injection, schedule: Q04DX003 (ip), vehicle: saline + alcohol): 123 % of control and 219 % of control
T/C (dose: 0.9 mg/kg/injection, schedule: Q04DX003 (ip), vehicle: saline): 551 % of control
T/C (dose: 1.2 mg/kg/injection, schedule: Q04DX003 (ip), vehicle: saline + alcohol): 97 % of control and 117 % of control
T/C (dose: 1.3 mg/kg/injection, schedule: Q04DX003 (ip), vehicle: saline): 551 % of control
T/C (dose: 12.5 micrograms/kg/injection, schedule: Q01DX009 (ip), vehicle: saline + alcohol): 197 % of control
T/C (dose: 25.0 micrograms/kg/injection, schedule: Q01DX009 (ip), vehicle: saline + alcohol): 218 % of control
T/C (dose: 50.0 micrograms/kg/injection, schedule: Q01DX009 (ip), vehicle: saline + alcohol): 263 % of control
T/C (dose: 75.0 micrograms/kg/injection, schedule: Q04DX003 (ip), vehicle: saline + alcohol): 205 % of control
T/C (dose: 100.0 micrograms/kg/injection, schedule: Q01DX009 (ip), vehicle: saline + alcohol): 270 % of control
T/C (dose: 112.5 micrograms/kg/injection, schedule: Q01DX009 (ip), vehicle: saline + alcohol): 265 % of control
T/C (dose: 150.0 micrograms/kg/injection, schedule: Q01DX009 (ip), vehicle: saline + alcohol): 212 % of control
T/C (dose: 150.0 micrograms/kg/injection, schedule: Q04DX003 (ip), vehicle: saline + alcohol): 226 % of control and 153 % of control
T/C (dose: 200.0 micrograms/kg/injection, schedule: Q01DX009 (ip), vehicle: saline + alcohol): 622 % of control
T/C (dose: 225.0 micrograms/kg/injection, schedule: Q01DX009 (ip), vehicle: saline + alcohol): 105 % of control
T/C (dose: 300.0 micrograms/kg/injection, schedule: Q01DX009 (ip), vehicle: saline + alcohol): 95 % of control
T/C (dose: 300.0 micrograms/kg/injection, schedule: Q04DX003 (ip), vehicle: saline + alcohol): 250 % of control and 197 % of control
T/C (dose: 450.0 micrograms/kg/injection, schedule: Q01DX009 (ip), vehicle: saline + alcohol): 94 % of control
T/C (dose: 600.0 micrograms/kg/injection, schedule: Q04DX003 (ip), vehicle: saline + alcohol): 385 % of control and 388 % of control
T/C (dose: 1200.0 micrograms/kg/injection, schedule: Q04DX003 (ip), vehicle: saline + alcohol): 104 % of control

Nc1ccc(N2N=C(N3CCCC3)CC2=O)cc1
T/C (dose: 50.0 mg/kg/injection, schedule: Q01DX005 (ip), vehicle: saline with Tween-80): 89 % of control
T/C (dose: 100.0 mg/kg/injection, schedule: Q01DX005 (ip), vehicle: saline with Tween-80): 89 % of control
T/C (dose: 200.0 mg/kg/injection, schedule: Q01DX005 (ip), vehicle: saline with Tween-80): 103 % of control

Cc1cc(OCc2nc(N)nc(N)c2-c2ccc(Cl)c(Cl)c2)ccc1NS(=O)(=O)c1cccc(S(=O)(=O)F)c1
T/C (dose: 45.0 mg/kg/injection, schedule: Q04DX003 (ip), vehicle: Klucel (hydroxypropylcellulose) (HPC)): 109 % of control
T/C (dose: 65.0 mg/kg/injection, schedule: Q04DX003 (ip), vehicle: Klucel (hydroxypropylcellulose) (HPC)): 118 % of control
T/C (dose: 100.0 mg/kg/injection, schedule: Q04DX003 (ip), vehicle: Klucel (hydroxypropylcellulose) (HPC)): 122 % of control
T/C (dose: 264.0 mg/kg/injection, schedule: Q04DX003 (ip), vehicle: Klucel (hydroxypropylcellulose) (HPC)): 175 % of control
T/C (dose: 400.0 mg/kg/injection, schedule: Q04DX003 (ip), vehicle: Klucel (hydroxypropylcellulose) (HPC)): 170 % of control

O=C(N/N=C/c1cccc(Cl)c1)c1ccccc1
T/C (dose: 100.0 mg/kg/injection, schedule: Q04DX003 (ip), vehicle: other): 95 % of control
T/C (dose: 200.0 mg/kg/injection, schedule: Q04DX003 (ip), vehicle: other): 95 % of control
T/C (dose: 400.0 mg/kg/injection, schedule: Q04DX003 (ip), vehicle: other): 113 % of control

CCN1CC2(COC)C(O)CC(OC)C34C5CC6(O)C(OC)C=C(C5C6OC(=O)c5ccc(OC)c(OC)c5)C(C(OC)C23)C14 (centres undefined)
T/C (dose: 0.19 mg/kg/injection, schedule: Q01DX009 (ip), vehicle: saline with Tween-80): 120 % of control
T/C (dose: 0.38 mg/kg/injection, schedule: Q01DX009 (ip), vehicle: saline with Tween-80): 94 % of control
T/C (dose: 0.75 mg/kg/injection, schedule: Q01DX009 (ip), vehicle: saline with Tween-80): 90 % of control
